# Assay results: ChEMBL document CHEMBL4020788, “Synthesis, SAR and molecular docking studies of benzo[d]thiazole-hydrazones as potential antibacterial and antifungal agents” (2017)
# Activity calls are given as the source filed them. No cut-off for these calls is given here.
# Tests used:
# Format in all cases: functional
# Escherichia coli [1] = test: Antibacterial activity against Escherichia coli at 75 ug/ml after 24 hrs by agar well diffusion method; settings: read-out: DIZ
# Bacillus subtilis [2] = test: Antibacterial activity against Bacillus subtilis incubated for overnight by microdilution method
# Escherichia coli [3] = test: Antibacterial activity against Escherichia coli at 50 ug/ml after 24 hrs by agar well diffusion method; settings: read-out: DIZ
# Staphylococcus aureus [4] = test: Antibacterial activity against methicillin resistant Staphylococcus aureus MRSA090 at 25 ug/ml after 24 hrs by agar well diffusion method; settings: MRSA090, 24 h, read-out: DIZ
# Staphylococcus aureus [5] = test: Antibacterial activity against Staphylococcus aureus at 75 ug/ml after 24 hrs by agar well diffusion method; settings: read-out: DIZ
# Staphylococcus aureus [6] = test: Antibacterial activity against Staphylococcus aureus at 25 ug/ml after 24 hrs by agar well diffusion method; settings: read-out: DIZ
# Staphylococcus aureus [7] = test: Antibacterial activity against methicillin resistant Staphylococcus aureus MRSA090 incubated for overnight by microdilution method
# Escherichia coli [8] = test: Antibacterial activity against Escherichia coli at 25 ug/ml after 24 hrs by agar well diffusion method; settings: read-out: DIZ
# Klebsiella pneumoniae [9] = test: Antibacterial activity against Klebsiella pneumoniae at 100 ug/ml after 24 hrs by agar well diffusion method; settings: read-out: DIZ
# Bacillus subtilis [10] = test: Antibacterial activity against Bacillus subtilis at 75 ug/ml after 24 hrs by agar well diffusion method; settings: read-out: DIZ
# Aspergillus niger [11] = test: Antifungal activity against Aspergillus niger at 100 ug/ml after 48 hrs by agar well diffusion method; settings: read-out: DIZ
# Fusarium oxysporum [12] = test: Antifungal activity against Fusarium oxysporum at 25 ug/ml after 48 hrs by agar well diffusion method; settings: read-out: DIZ
# Klebsiella pneumoniae [13] = test: Antibacterial activity against Klebsiella pneumoniae at 75 ug/ml after 24 hrs by agar well diffusion method; settings: read-out: DIZ
# Escherichia coli [14] = test: Antibacterial activity against Escherichia coli at 100 ug/ml after 24 hrs by agar well diffusion method; settings: read-out: DIZ
# Staphylococcus aureus [15] = test: Antibacterial activity against methicillin resistant Staphylococcus aureus MRSA090 at 75 ug/ml after 24 hrs by agar well diffusion method; settings: MRSA090, 24 h, read-out: DIZ
# Fusarium verticillioides [16] = test: Antifungal activity against Fusarium moniliforme at 75 ug/ml after 48 hrs by agar well diffusion method
# Fusarium oxysporum [17] = test: Antifungal activity against Fusarium oxysporum at 100 ug/ml after 48 hrs by agar well diffusion method; settings: read-out: DIZ
# Escherichia coli [18] = test: Antibacterial activity against Escherichia coli incubated for overnight by microdilution method
# Fusarium verticillioides [19] = test: Antifungal activity against Fusarium moniliforme at 50 ug/ml after 48 hrs by agar well diffusion method
# Staphylococcus aureus [20] = test: Antibacterial activity against methicillin resistant Staphylococcus aureus MRSA090 at 50 ug/ml after 24 hrs by agar well diffusion method; settings: MRSA090, 24 h, read-out: DIZ
# Aspergillus niger [21] = test: Antifungal activity against Aspergillus niger at 75 ug/ml after 48 hrs by agar well diffusion method
# Klebsiella pneumoniae [22] = test: Antibacterial activity against Klebsiella pneumoniae incubated for overnight by microdilution method
# Bacillus subtilis [23] = test: Antibacterial activity against Bacillus subtilis at 25 ug/ml after 24 hrs by agar well diffusion method; settings: read-out: DIZ
# Fusarium verticillioides [24] = test: Antifungal activity against Fusarium moniliforme at 100 ug/ml after 48 hrs by agar well diffusion method
# Bacillus subtilis [25] = test: Antibacterial activity against Bacillus subtilis at 50 ug/ml after 24 hrs by agar well diffusion method; settings: read-out: DIZ
# Klebsiella pneumoniae [26] = test: Antibacterial activity against Klebsiella pneumoniae at 50 ug/ml after 24 hrs by agar well diffusion method; settings: read-out: DIZ
# Staphylococcus aureus [27] = test: Antibacterial activity against methicillin resistant Staphylococcus aureus MRSA090 at 100 ug/ml after 24 hrs by agar well diffusion method; settings: MRSA090, 24 h, read-out: DIZ
# Fusarium verticillioides [28] = test: Antifungal activity against Fusarium moniliforme at 25 ug/ml after 48 hrs by agar well diffusion method
# Staphylococcus aureus [29] = test: Antibacterial activity against Staphylococcus aureus at 50 ug/ml after 24 hrs by agar well diffusion method; settings: read-out: DIZ
# Aspergillus niger [30] = test: Antifungal activity against Aspergillus niger at 50 ug/ml after 48 hrs by agar well diffusion method
# Staphylococcus aureus [31] = test: Antibacterial activity against Staphylococcus aureus incubated for overnight by microdilution method
# Aspergillus niger [32] = test: Antifungal activity against Aspergillus niger at 25 ug/ml after 48 hrs by agar well diffusion method
# Klebsiella pneumoniae [33] = test: Antibacterial activity against Klebsiella pneumoniae at 25 ug/ml after 24 hrs by agar well diffusion method; settings: read-out: DIZ
# Fusarium oxysporum [34] = test: Antifungal activity against Fusarium oxysporum at 50 ug/ml after 48 hrs by agar well diffusion method; settings: read-out: DIZ
# Bacillus subtilis [35] = test: Antibacterial activity against Bacillus subtilis at 100 ug/ml after 24 hrs by agar well diffusion method; settings: read-out: DIZ
# Fusarium oxysporum [36] = test: Antifungal activity against Fusarium oxysporum at 75 ug/ml after 48 hrs by agar well diffusion method; settings: read-out: DIZ
# Staphylococcus aureus [37] = test: Antibacterial activity against Staphylococcus aureus at 100 ug/ml after 24 hrs by agar well diffusion method; settings: read-out: DIZ
# Fusarium verticillioides [38] = test: Antifungal activity against Fusarium moniliforme after 48 to 72 hrs by microdilution method
# Fusarium oxysporum [39] = test: Antifungal activity against Fusarium oxysporum after 48 to 72 hrs by microdilution method
# Aspergillus niger [40] = test: Antifungal activity against Aspergillus niger after 48 to 72 hrs by microdilution method
SMILES,zone of inhibition at 75 µg/mL (Escherichia coli [1]) [mm],zone of inhibition at 50 µg/mL (Escherichia coli [3]) [mm],zone of inhibition at 25 µg/mL (Staphylococcus aureus [4]) [mm],zone of inhibition at 75 µg/mL (Staphylococcus aureus [5]) [mm],zone of inhibition at 25 µg/mL (Staphylococcus aureus [6]) [mm],zone of inhibition at 25 µg/mL (Escherichia coli [8]) [mm],zone of inhibition at 100 µg/mL (Klebsiella pneumoniae [9]) [mm],zone of inhibition at 75 µg/mL (Bacillus subtilis [10]) [mm],zone of inhibition at 75 µg/mL (Klebsiella pneumoniae [13]) [mm],zone of inhibition at 100 µg/mL (Escherichia coli [14]) [mm],zone of inhibition at 75 µg/mL (Staphylococcus aureus [15]) [mm],zone of inhibition at 50 µg/mL (Staphylococcus aureus [20]) [mm],zone of inhibition at 25 µg/mL (Bacillus subtilis [23]) [mm],zone of inhibition at 50 µg/mL (Bacillus subtilis [25]) [mm],zone of inhibition at 50 µg/mL (Klebsiella pneumoniae [26]) [mm],zone of inhibition at 100 µg/mL (Staphylococcus aureus [27]) [mm],zone of inhibition at 50 µg/mL (Staphylococcus aureus [29]) [mm],zone of inhibition at 25 µg/mL (Klebsiella pneumoniae [33]) [mm],zone of inhibition at 100 µg/mL (Bacillus subtilis [35]) [mm],zone of inhibition at 100 µg/mL (Staphylococcus aureus [37]) [mm],other results
COc1ccc(/C=N/Nc2nc3cccc(C)c3s2)c(OC)c1,24,18,15,20,10,13,15,25,12,23,22,18,13,19,9,27,15,4,29,28,MIC (Bacillus subtilis [2]): 24 µg/mL; MIC (Staphylococcus aureus [7]): 22 µg/mL; zone of inhibition at 100 µg/mL (Aspergillus niger [11]): 4 mm; zone of inhibition at 25 µg/mL (Fusarium oxysporum [12]): 7 mm; diameter of the inhibition zone (DIZ) (Fusarium verticillioides [16]): inactive; zone of inhibition at 100 µg/mL (Fusarium oxysporum [17]): 17 mm; MIC (Escherichia coli [18]): 25 µg/mL; diameter of the inhibition zone (DIZ) (Fusarium verticillioides [19]): inactive; diameter of the inhibition zone (DIZ) (Aspergillus niger [21]): inactive; MIC (Klebsiella pneumoniae [22]): 22 µg/mL; diameter of the inhibition zone (DIZ) (Fusarium verticillioides [24]): inactive; diameter of the inhibition zone (DIZ) (Fusarium verticillioides [28]): inactive; diameter of the inhibition zone (DIZ) (Aspergillus niger [30]): inactive; MIC (Staphylococcus aureus [31]): 26 µg/mL; diameter of the inhibition zone (DIZ) (Aspergillus niger [32]): inactive; zone of inhibition at 50 µg/mL (Fusarium oxysporum [34]): 12 mm; zone of inhibition at 75 µg/mL (Fusarium oxysporum [36]): 14 mm
Cc1cccc2nc(N/N=C/c3ccc([N+](=O)[O-])cc3[N+](=O)[O-])sc12,15,13,8,13,6,8,19,12,14,18,16,13,3,7,19,18,9,5,16,19,MIC (Fusarium verticillioides [38]): 25 µg/mL; zone of inhibition at 100 µg/mL (Aspergillus niger [11]): 32 mm; zone of inhibition at 25 µg/mL (Fusarium oxysporum [12]): 13 mm; zone of inhibition at 75 µg/mL (Fusarium verticillioides [16]; read-out: DIZ): 30 mm; zone of inhibition at 100 µg/mL (Fusarium oxysporum [17]): 28 mm; zone of inhibition at 50 µg/mL (Fusarium verticillioides [19]; read-out: DIZ): 24 mm; zone of inhibition at 75 µg/mL (Aspergillus niger [21]; read-out: DIZ): 29 mm; MIC (Fusarium oxysporum [39]): 22 µg/mL; zone of inhibition at 100 µg/mL (Fusarium verticillioides [24]; read-out: DIZ): 36 mm; zone of inhibition at 25 µg/mL (Fusarium verticillioides [28]; read-out: DIZ): 20 mm; zone of inhibition at 50 µg/mL (Aspergillus niger [30]; read-out: DIZ): 24 mm; MIC (Aspergillus niger [40]): 25 µg/mL; zone of inhibition at 25 µg/mL (Aspergillus niger [32]; read-out: DIZ): 21 mm; zone of inhibition at 50 µg/mL (Fusarium oxysporum [34]): 19 mm; zone of inhibition at 75 µg/mL (Fusarium oxysporum [36]): 25 mm
O=C(N[C@H](CO)[C@H](O)c1ccc([N+](=O)[O-])cc1)C(Cl)Cl [CHLORAMPHENICOL],32,27,19,34,24,23,36,31,33,38,27,22,21,25,29,31,28,24,34,37,MIC (Bacillus subtilis [2]): 27 µg/mL; MIC (Staphylococcus aureus [7]): 25 µg/mL; MIC (Escherichia coli [18]): 25 µg/mL; MIC (Klebsiella pneumoniae [22]): 28 µg/mL; MIC (Staphylococcus aureus [31]): 27 µg/mL
